Measurements from US20220175675A1, “ENCAPSULATING MOLECULES IN FAT GLOBULES” (The Regents of the University of California, priority 2019, published 2022).
Marks after values point to notes of the source that are not given here.

Columns and labels:
[1] = Measured or estimated, from references; cited from earlier work
[2] = Encapsulation of hydrophobic compounds into milk fat globules (loading capacity, encapsulation efficiency); format: physicochemical, bovine; settings: for maximal loading capacity (LC): maximal value over 50-2500 μM; for encapsulation efficiency (EE %), maximal/overall value: over tested concentrations
Method: Raw milk was procured from a local market and stored at 4° C. Milk was used for up to 4 days post purchase. MFGs were separated from raw milk using centrifugal separation following a modified version of the method by Gallier et al. (2010) (12). First, raw milk was diluted with Milli-Q water at 9:1 water to milk, and the solution was centrifuged at 3,000×g for 5 min using a fixed angle centrifuge rotor. Cream was then skimmed off the sides of the centrifuged tubes after discarding the aqueous phase. In order to remove more of the milk serum components, cream was reconstituted in water to reach 4% w/v, and subjected to another step of centrifugation at 3,000×g for 5 min Cream was collected as detailed prior, then reconstituted to 20% w/v in Milli-Q water. All separation steps were completed at room temperature.
Encapsulation of test compounds in MFGs was accomplished by mixing ethanolic stock solution of a compound with 20% w/v cream suspended in water. The mixture was gently inverted several times to mix, then allowed in incubate in the dark.
To test the effect of incubation temperature on the partitioning and encapsulation yield and efficiency, RA was added at 250 μM concentration and was allowed to incubate with MFGs for 30 min at 4, 22, and 40° C.
To quantify the amount of compound encapsulated in MFGs, cream was separated from ethanol-containing aqueous phase via centrifugal separation at 3,000 x g for 5 min. Cream was skimmed and added to methanol at 50 mg/mL and vortexed vigorously for 1 min, then centrifuged at 16,000×g for 10 min. Top layer of methanol was collected and absorbance was measured at appropriate wavelength for each compound. An absorbance blank was prepared following the same encapsulation and separation steps in the absence of compound. λmax in methanol (nm) for each compound is reported in Table 1.
Cream (20% w/v in Milli-Q water) that was separated following the steps in Example 2 was further separated via centrifugation at 3,000×g for 5 min. Fat content in cream was measured using a modified Folch method (13). An additional washing step was incorporated where the chloroform/water interface was washed with 1:1 water/methanol solution.

[3] = Encapsulation of hydrophobic compounds into milk fat globules (loading capacity, encapsulation efficiency); format: physicochemical, bovine; settings: 250 μM, 1% v/v ethanol, room temperature
[4] = Water/octanol partitioning coefficient, Log P
[5] = 150 μM added compound, 10% v/v ethanol, 30 min, room temperature
[6] = 200 μM added compound, 10% v/v ethanol, 30 min, room temperature
[7] = 250 μM added compound, 10% v/v ethanol, 30 min, room temperature
[8] = 500 μM added compound, 10% v/v ethanol, 30 min, room temperature
[9] = 1000 μM added compound, 10% v/v ethanol, 30 min, room temperature
[10] = 1500 μM added compound, 10% v/v ethanol, 30 min, room temperature
[11] = 2000 μM added compound, 10% v/v ethanol, 30 min, room temperature
[12] = 2500 μM added compound, 10% v/v ethanol, 30 min, room temperature
[13] = 10% v/v ethanol, 30 min, room temperature
[14] = 1% v/v ethanol, 250 μM, 30 min, room temperature
[15] = 2% v/v ethanol, 250 μM, 30 min, room temperature
[16] = 4% v/v ethanol, 250 μM, 30 min, room temperature
[17] = 4 °C, 30 min, 250 μM, 1% v/v ethanol
[18] = 6% v/v ethanol, 250 μM, 30 min, room temperature
[19] = 8% v/v ethanol, 250 μM, 30 min, room temperature
[20] = 10% v/v ethanol, 250 μM, 30 min, room temperature
[21] = 22 °C, 30 min, 250 μM, 1% v/v ethanol
[22] = 40 °C, 30 min, 250 μM, 1% v/v ethanol
[23] = 40 °C, 30 min, 250 μM, 1% v/v ethanol, listed as RA
[24] = 30 min incubation, 250 μM, 1% v/v ethanol, room temperature

For C=CCc1ccc(O)c(OC)c1 [Eugenol], the “Water/octanol partitioning coefficient, Log P” value [1] is listed as 2.61-2.66 ^(18), the “% Encapsulation efficiency” value [2, 5] is listed as 98.05 ± 4.10% and the “% Encapsulation efficiency” value [2, 6] is listed as 95.43 ± 7.46%. The “% Encapsulation efficiency” value [2, 7] was 86.64 ± 7.23%, the “% Encapsulation efficiency” value [2, 8] was 85.14 ± 6.33% and the “% Encapsulation efficiency” value [2, 9] was 80.94 ± 2.42 %. The “% Encapsulation efficiency” value [2, 10] was 82.09 ± 134 %, the “% Encapsulation efficiency” value [2, 11] was 80.86 ± 2.58 % and the “% Encapsulation efficiency” value [2, 12] was 80.71 ± 3.39 %. For the same molecule, the “maximal loading capacity (LC)” value [2, 13] was 39.65 μg per gram of milk fat, the “encapsulation efficiency (EE %), maximal/overall value” ([2]; 10% v/v ethanol, 30 min) was “approximately 98%” and the logP (physchem) was roughly 2.6.

For CC(=O)OC/C=C(C)/C=C/C=C(C)/C=C/C1=C(C)CCCC1(C)C [Retinyl acetate], the “Water/octanol partitioning coefficient, Log P” value [1] is listed as 6.3-9.81 ^(21, 23), the Loading capacity ([3]; 10 min incubation) is listed as 5.11 ± 0.46^ μg retinyl acetate/g of milk f and the Loading capacity ([3]; 20 min incubation) is listed as 6.45 ± 0.63 μg retinyl acetate/g of milk f. For the same molecule, the Loading capacity ([3]; 40 min incubation) was 7.76 ± 0.50 μg retinyl acetate/g of milk f, the “% Encapsulation efficiency” value ([3]; 50 min incubation) was 89.38 ± 4.66 % and the Loading capacity ([3]; 60 min incubation) was 9.28 ± 0.22 *†‡¥ μg retinyl acetate/g of milk f. The Loading capacity ([3]; 60 min incubation, listed as RA) was 9.28 μg retinyl acetate/g of milk f, the “% Encapsulation efficiency” value ([2]; 50 μM added compound, 10% v/v ethanol, 30 min, room temperature) was 107.46 ± 6.29% and the “% Encapsulation efficiency” value ([2]; 100 μM added compound, 10% v/v ethanol, 30 min, room temperature) was 100.56 ± 3.83%. For the same molecule, the “% Encapsulation efficiency” value [2, 5] was 111.73 ± 6.32%, the “% Encapsulation efficiency” value [2, 6] was 110.33 ± 3.15% and the “% Encapsulation efficiency” value [2, 7] was 105.92 ± 4.41%. The “% Encapsulation efficiency” value [2, 8] was 76.40 ± 9.65 %, the “% Encapsulation efficiency” value [2, 9] was 86.09 ± 12.48 % and the “% Encapsulation efficiency” value [2, 10] was 82.14 ± 15.94 %. The “% Encapsulation efficiency” value [2, 11] was 76.89 ± 9.88 %, the “% Encapsulation efficiency” value [2, 12] was 75.45 ± 5.19 % and the “% Encapsulation efficiency” value [2, 14] was 77.86 ± 5.54^ %. For the same molecule, the Loading capacity [2, 14] was 7.65 ± 0.54^ μg retinyl acetate/g of milk f, the Loading capacity ([2]; 1% v/v ethanol, 250 μM, 30 min, room temperature, listed as RA) was 7.6 μg retinyl acetate/g of milk f and the “EE % range with increased ethanol concentration” value ([2]; 1 to 10% v/v ethanol, 250 μM, 30 min) was 78-107%. The “% Encapsulation efficiency” value [2, 15] was 83.40 ± 11.73%, the Loading capacity [2, 15] was 8.20 ± 1.15^ μg retinyl acetate/g of milk f and the “% Encapsulation efficiency” value [2, 16] was 101.24 ± 4.76 %. For the same molecule, the Loading capacity [2, 16] was 9.95 ± 0.47 μg retinyl acetate/g of milk f, the “% Encapsulation efficiency” value [2, 17] was 53.52 ± 3.97 ^a % and the Loading capacity [2, 17] was 5.26 ± 0.39 ^a μg retinyl acetate/g of milk f. For the same molecule, the “% Encapsulation efficiency” value [2, 18] was 106.90 ± 10.93 %, the Loading capacity [2, 18] was 10.51 ± 1.07 μg retinyl acetate/g of milk f and the “% Encapsulation efficiency” value [2, 19] was 107.65 ± 6.42 %. The Loading capacity [2, 19] was 10.58 ± 0.63 μg retinyl acetate/g of milk f, the “% Encapsulation efficiency” value [2, 20] was 107.53 ± 5.15 % and the Loading capacity [2, 20] was 10.57 ± 0.51 μg retinyl acetate/g of milk f. The Loading capacity ([2]; 10% v/v ethanol, 250 μM, 30 min, room temperature, listed as RA) was 10.57 μg retinyl acetate/g of milk f, the “% Encapsulation efficiency” value [2, 21] was 72.07 ± 3.85 ^b % and the Loading capacity [2, 21] was 7.08 ± 0.38 ^b μg retinyl acetate/g of milk f. The “% Encapsulation efficiency” value [2, 22] was 124.42 ± 6.52 ^c %, the Loading capacity [2, 22] was 12.23 ± 0.64 ^c μg retinyl acetate/g of milk f and the “% Encapsulation efficiency” value [2, 23] was 124.42%. The Loading capacity [2, 23] was 12.23 μg retinyl acetate/g of milk f, the “% Encapsulation efficiency” value ([2]; 10 min incubation, 250 μM, 1% v/v ethanol, room temperature) was 52.02 ± 4.66^ % and the “% Encapsulation efficiency” value ([2]; 20 min incubation, 250 μM, 1% v/v ethanol, room temperature) was 65.66 ± 6.40 %. The “% Encapsulation efficiency” value [2, 24] was 76.11 ± 0.89 %, the Loading capacity [2, 24] was 7.48 ± 0.09 μg retinyl acetate/g of milk f and the “% Encapsulation efficiency” value ([2]; 40 min incubation, 250 μM, 1% v/v ethanol, room temperature) was 78.98 ± 5.13 %. The Loading capacity ([2]; 50 min incubation, 250 μM, 1% v/v ethanol, room temperature) was 8.78 ± 0.46 μg retinyl acetate/g of milk f, the “% Encapsulation efficiency” value ([2]; 60 min incubation, 250 μM, 1% v/v ethanol, room temperature) was 94.38 ± 2.25 *†‡¥ % and the “maximal loading capacity (LC)” value [2, 13] was 74.15 μg per gram of milk fat. For the same molecule, the “encapsulation efficiency (EE %), maximal/overall value” ([2]; 10% v/v ethanol, 30 min) was no less than 100% and the logP [4] was roughly 8.
